Experiment [1] deals with T1, rhesus (Macacca Mulatta) H3 receptor (Macaca mulatta, UniProt Q865E1).
T1 construct: pcDNA5/FRT/TO (Invitrogen) containing the rhesus monkey (Macacca Mulatta) 445 amino acid H3 receptor
The experiment is described as follows: Rhesus H3 radioligand binding assay ([3H]-Methylhistamine displacement, WGA SPA beads). Details: species or system rhesus monkey (Macacca Mulatta). Particulars: read-out: Affinity: ki in Rhesus H3 membrane. How it is done:
(§1) (Genbank #AY231164). Stably transfected cultures were amplified in tissue culture flasks by standard tissue culture methods and induced to express rhesus H3 by exposure to 500 ng/ml tetracycline (Cellgro) for 24 hours. After induction, cells were dissociated from flasks utilizing Cell Stripper (Cellgro). Cells were centrifuged (1K×g, 5 min) and pellet frozen in an ethanol-dry ice bath to disrupt cell membranes. Frozen cell pellet was re-suspended in 5 mM HEPES (pH 7.4, Invitrogen) at 10 ml/1000 cm2 of harvested cells. The cell suspension was drawn through an 18 gauge needle (2-3×) followed by a 23 gauge needle (2-3×) to further disrupt cell membranes. The cell suspension was centrifuged (40K×g, 30 min). Cell membrane pellet was re-suspended in 5 mM HEPES (pH 7.4, Invitrogen) at a final protein concentration of 10 mg/ml. Rhesus H3 membranes were stored under liquid nitrogen prior to use in [3H]-Methylhistamine and GTPγS radioligand binding assays.
Rhesus H3 radioligand binding assay was performed using rhesus H3 receptor membranes (prepared as described above), [3H]-Methylhistamine (Perkin Elmer) and WGA SPA beads (wheat germ agglutinin scintillation proximity assay) beads (Amersham). The assay was performed in 96-well Opti-Plates (Packard). Each reaction contained 50 μl rhesus H3 membranes (20-30 μg total protein), 50 μl WGA SPA beads (0.1 μg) and 50 μl of 83 Ci/mmol [^3H]-Methylhistamine (final concentration 2 nM) and 50 μl of tested compound. The compounds of this invention and/or vehicle were diluted with binding buffer from 10 mM DMSO stocks. Assay plates were sealed with TopSeal (Perkin Elmer) and mixed on shaker (25° C., 1 hour). Assay plates were read on TopCount scintillation counter (Packard). Results were analyzed by Hill transformation and Ki values were determined by Cheng-Prusoff equation.

A further experiment relates to rhesus H3. The experiment is described as follows: GTPγS radioligand binding assay, inhibition of rhesus H3 constitutive functional activity in cell membranes. Particulars: Table 1; relative to basal level. Type of experiment: biochemical, rhesus monkey (Macacca Mulatta). How it is done: as §1, with “Rhesus H3 membranes were prepared from the Flp-In T-REx 293 Cell Line (Invitrogen) stably transfected with pcDNA5/FRT/TO (Invitrogen) containing the rhesus monkey (Macacca Mulatta) 445 amino acid H3 receptor. (Genbank” for “(Genbank”

The mark [2] stands for this setting: Table 2, stereoisomer comparison, procedure of Example 148.
[3] abbreviates: Table 1, [3H]-Methylhistamine 2 nM, Cheng-Prusoff.

SMILES strings stand for the structures. Where a name gives a salt, the structure may show the parent alone. Read-outs that look alike come from different tables or passages of the source.

T1 sequence (Q865E1 1-445): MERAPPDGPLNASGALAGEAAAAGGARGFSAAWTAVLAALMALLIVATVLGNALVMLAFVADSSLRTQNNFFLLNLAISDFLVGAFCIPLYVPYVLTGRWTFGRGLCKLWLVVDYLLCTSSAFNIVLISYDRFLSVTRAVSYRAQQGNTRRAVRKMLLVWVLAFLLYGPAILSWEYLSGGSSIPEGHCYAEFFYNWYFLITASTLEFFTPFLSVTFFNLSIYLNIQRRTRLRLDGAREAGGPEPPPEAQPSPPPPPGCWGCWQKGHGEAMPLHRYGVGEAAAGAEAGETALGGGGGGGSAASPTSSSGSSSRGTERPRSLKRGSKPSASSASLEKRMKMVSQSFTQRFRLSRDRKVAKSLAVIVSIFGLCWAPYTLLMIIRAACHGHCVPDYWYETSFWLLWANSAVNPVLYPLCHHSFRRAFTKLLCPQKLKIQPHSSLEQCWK

Regarding `Cc1cc(N2CC[C@@H](N3CCC[C@@H]3C)C2)ccc1NC(=O)c1cc(F)ccc1C` [Example 3, 5-Fluoro-2-methyl-N-[2-methyl-4-(2(2S)-methyl-[1,3′(3′R)]bipyrrolidinyl-1′-yl)-phenyl]-benzamide], the Ki in experiment [1] (setting [2]) was found to be 7.3 nM.
On to `Cc1cc(N2CC[C@H](N3CCC[C@H]3C)C2)ccc1NC(=O)c1cc(F)ccc1C` [Example 5, 5-Fluoro-2-methyl-N-[2-methyl-4-(2(2R)-methyl-[1,3′(3′S)]bipyrrolidinyl-1′-yl)-phenyl]-benzamide], for which the Ki in experiment [1] (setting [2]) is 121 nM.
Turning to `Cc1cc(N2CCC(N3CCCC3C)C2)ccc1NC(=O)c1ccc(F)cc1` (stereo not drawn) [Example 7, 4-Fluoro-N-[2-methyl-4-(2-methyl-[1,3′]bipyrrolidinyl-1′-yl)-phenyl]-benzamide], the Ki in experiment [1] (setting [3]) was 2.06 nM. Moreover, the “Inverse Agonism: % inhibition of Basal GTPγS binding in Rhesus H3” value (shortened to “Inverse Agonism: % inhibition”) with rhesus H3 is −31%.
For `Cc1cc(N2CC[C@@H](N3CCC[C@@H]3C)C2)ccc1NC(=O)c1cc(F)ccc1C` [Example 11, 5-Fluoro-2-methyl-N-[2-methyl-4-(2-(2S)-methyl-[1,3′(3′S)]bipyrrolidinyl-1′-yl)-phenyl]-benzamide], the Ki in experiment [1] (setting [2]) came to 2.5 nM.
For the compound `Cc1cc(N2CC[C@@H](N3CCC[C@H]3C)C2)ccc1NC(=O)c1cc(F)ccc1C` [Example 12, 5-Fluoro-2-methyl-N-[2-methyl-4-(2-(R)-methyl-[1,3′(R)]bipyrrolidinyl-1′-yl)-phenyl]-benzamide hydrochloride], the inhibitory constant (Ki) in experiment [1] (setting [2]) turned out to be 147 nM.
`Cc1cc(N2CC[C@H](N3CCC[C@@H]3C)C2)ccc1NC(=O)c1ccc2[nH]ccc2c1` [Example 52, 1H-Indole-5-carboxylic acid [2-methyl-4-(2(S)-methyl-[1,3′(5)]-bipyrrolidinyl-1′-yl)-phenyl]-amide trifluoroacetate]: the Ki in experiment [1] (setting [3]) was 0.77 nM. For the same compound, the “Inverse Agonism: % inhibition” value with rhesus H3 is listed as −17%.
The matching figures for `Cc1cc(N2CC[C@H](N3CCC[C@@H]3C)C2)ccc1NC(=O)c1ccc2ccoc2c1` [Example 73, Benzofuran-6-carboxylic acid [2-methyl-4-(2(S)-methyl-[1,3′(S)]bipyrrolidinyl-1′-yl)-phenyl]-amide trifluoroacetate]: 0.78 nM and −15%.
For `Cc1cccc(C(=O)Nc2ccc(N3CC[C@H](N4CCC[C@@H]4C)C3)cc2C)n1` [Example 86, 6-Methyl-pyridine-2-carboxylic acid [2-methyl-4-(2(S)-methyl-[1,3′(S)]bipyrrolidinyl-1′-yl)-phenyl]-amide trifluoroacetate], the inhibition constant Ki in experiment [1] (setting [3]) is 1.42 nM. The “Inverse Agonism: % inhibition” value with rhesus H3 was −18%.

The values are drawn from US8618159B2, “Substituted N-phenyl-bipyrrolidine carboxamides and therapeutic use thereof” (Sanofi, priority 2007, dated 2013).
